These are literature values, as cited in US9877951B2, “Method for treating dementia” (College of William and Mary, priority 2015, dated 2018).

Structures are written as SMILES. Like-named read-outs stand apart in the source and are kept apart here.

The conditions of series [1]: for ability of DCS to facilitate extinction: DCS for five consecutive days.
The conditions of series [2]: storage.
In series [3] the test system is Mycobacterium tuberculosis strains. As to conditions: typical Mycobacterium tuberculosis strains.
Assay in series [4]: not given
This is another data set of the same source.

The conditions of series [5]: chronic dosing at typical tuberculosis doses.

For `CN(C)CCCN1c2ccccc2CCc2ccccc21` [imipramine], in series [1] (rats, daily administration of imipramine for 15 days), the “effect on ability of DCS to facilitate extinction learning” value was “blocked the ability of DCS to facilitate extinction learning”.

For the compound `CC(=O)C=C(C)N[C@@H]1CONC1=O` [(R)-4-[(1-methyl-3-oxo-1-butenyl)-amino]-3-isoxazolidinone], the “stability relative to DCS” value in series [2] was “enhanced stability relative to DCS”.

Turning to `N[C@@H]1CON=C1O` [DCS, 3-Isoxazolidinone, 4-amino-, (4R)-(9Cl)], the “minimum inhibitory concentrations (MIC) in vitro” value in series [3] was 6 to 25 µg/mL. The “benefit on Alzheimer's Disease” value (100 mg daily administration (Tsai et al.)) was “positive benefit”. Further, the “benefit for treatment of Alzheimer's Disease” value (up to 50 mg daily dosing, 410-patient trial (Fakouhi et al.)) is “did not have a significant benefit”. For the same compound, the “ability of DCS to facilitate extinction learning” value in series [1] (rats exposed to DCS for 15 consecutive days) was “eliminated”. For the same compound, the “ability of DCS to facilitate extinction” value is given as “restored” in series [1] (rats, extinction paradigm 28 days later) and “significantly decreased” in series [1] (rats, extinction paradigm two days later). In addition, in series [4] (dose of 500 mg/day), the “serum concentrations generally maintained” value was 25000 to 30000 ng/mL. Also, the “time of peak serum concentrations after dosing” value in series [4] (oral capsules) is 3 to 8 h. The peak serum concentrations result in series [4] (sub-antimicrobial doses (less than or equal to 2 mg/kg)) is recorded as “less than or equal to 5 μg/mL”. In addition, the recorded side effects entry in series [5] was “drowsiness, depression, headache, confusion, tremor, vertigo, and memory difficulties, paresthesias, and seizure”.
